According to article PMC8279409, “Novel Mixed NOP/Opioid Receptor Peptide Agonists” (Journal of Medicinal Chemistry, 2021):
Where a SMILES comes first, the peptide text is derived from it. [ ]: non-standard residue; d: D form. Phe(4-NO2) = N[C@@H](Cc1ccc([N+](=O)[O-])cc1)C(=O)O; Dip = N[C@H](C(=O)O)C(c1ccccc1)c1ccccc1; Phe(4-F) = N[C@@H](Cc1ccc(F)cc1)C(=O)O; hPhe = N[C@@H](CCc1ccccc1)C(=O)O; Phg = N[C@H](C(=O)O)c1ccccc1

What was measured:
human NOP receptor = molecular target: T1, human NOP receptor (Homo sapiens, UniProt P41146); assay: Calcium mobilization, NOP receptor; type: cell-based; settings: for NOP pEC50 (CL95%) / NOP/mu CR (concentration ratio): Table 2 series; for NOP pEC50 (CL95%): CHO cells coexpressing human NOP and Gαqi5, Fluo-4 AM, 37 °C, mean of at least three experiments in duplicate, CL95% in brackets; for NOP/mu CR (concentration ratio): calcium mobilization, NOP versus mu; for Emax: read-out: NOP Emax ± S.E.M., Table 2 series, percent over the baseline fluorescence, mean ± SEM of at least three experiments in duplicate, SEM
T1 construct: expressed in transfected cells; host or cells: CHO cells stably coexpressing the receptor and chimeric Gαqi5
T1 sequence (P41146 whole entry): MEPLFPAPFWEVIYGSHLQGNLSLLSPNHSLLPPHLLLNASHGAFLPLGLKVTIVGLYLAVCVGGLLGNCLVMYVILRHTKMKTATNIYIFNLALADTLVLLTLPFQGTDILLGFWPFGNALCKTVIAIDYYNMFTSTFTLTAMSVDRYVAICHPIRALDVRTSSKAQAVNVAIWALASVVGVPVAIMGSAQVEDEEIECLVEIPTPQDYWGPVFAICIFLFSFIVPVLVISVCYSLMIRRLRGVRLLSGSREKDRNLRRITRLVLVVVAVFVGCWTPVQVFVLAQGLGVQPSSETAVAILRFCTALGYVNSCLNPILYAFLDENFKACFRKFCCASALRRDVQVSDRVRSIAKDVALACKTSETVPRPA
Experimental: CHO cells stably coexpressing the human NOP or kappa or the mu receptor and the C-terminally modified Gαqi5 and CHO cells coexpressing the delta receptor and the GαqG66Di5 protein were generated and cultured as described previously.[45],[46] Cells were maintained in Dulbecco’s modified Eagle’s medium/nutrient mixture F-12 (DEMEM/F-12) supplemented with 10% FBS, 100 U/mL penicillin and 100 μg/mL streptomycin, 100 μg/mL hygromicin B, and 200 μg/mL G418 and cultured at 37 °C in 5% CO2 humidified air. Cells were seeded at a density of 50,000 cells/well into 96-well black, clear-bottom plates. The following day, the cells were incubated with Hanks’ balanced salt solution (HBSS) supplemented with 2.5 mM probenecid, 3 μM of the calcium-sensitive fluorescent dye Fluo-4 AM, and 0.01% pluronic acid for 30 min at 37 °C. After that time, the loading solution was aspirated and 100 μL/well of HBSS supplemented with 20 mM HEPES, 2.5 mM probenecid, and 500 μM brilliant black was added. Serial dilutions were carried out in HBSS/HEPES (20 mM) buffer (containing 0.02% BSA fraction V). After placing both plates (cell culture and master plate) into the fluorometric imaging plate reader FlexStation II (Molecular Devices, Sunnyvale, CA), fluorescence changes were measured. On-line additions were carried out in a volume of 50 μL/well. To facilitate drug diffusion into the wells, the present studies were performed at 37 °C. Maximum change in fluorescence, expressed as percent over the baseline fluorescence, was used to determine agonist response.
The pharmacological terminology adopted in this paper is consistent with IUPHAR recommendations.[59] All data are expressed as the mean ± standard error of the mean (SEM) of at least three experiments performed in duplicate. […] Concentration-response curves to agonists were fitted to the classical four-parameter logistic nonlinear regression model:
Effect = Baseline + (Emax – Baseline)/(1 + 10^(LogEC50 – Log[compound]) × Hillslope). Curve fitting was performed using PRISM 6.0 (GraphPad Software Inc., San Diego).

human mu receptor = molecular target: T2, human mu receptor (Homo sapiens, UniProt P35372); assay: Calcium mobilization, mu opioid receptor; type: cell-based; settings: for mu pEC50 (CL95%): Table 2 series, CHO cells coexpressing human mu receptor and Gαqi5, Fluo-4 AM, 37 °C, mean of at least three experiments in duplicate, CL95% in brackets; for pEC50_mu: molecular formula strings CSV, repeats calcium mobilization values of Tables 1-3; for activation at 10 µM: read-out: mu effect at 10 μM (crc incomplete), Table 2 series, mean ± SEM; for activation at 10 µM / Emax: percent over the baseline fluorescence, SEM; for Emax: read-out: mu Emax ± S.E.M., Table 2 series, mean ± SEM of at least three experiments in duplicate
T2 construct: expressed in transfected cells; host or cells: CHO cells stably coexpressing the receptor and chimeric Gαqi5
T2 sequence (P35372 whole entry): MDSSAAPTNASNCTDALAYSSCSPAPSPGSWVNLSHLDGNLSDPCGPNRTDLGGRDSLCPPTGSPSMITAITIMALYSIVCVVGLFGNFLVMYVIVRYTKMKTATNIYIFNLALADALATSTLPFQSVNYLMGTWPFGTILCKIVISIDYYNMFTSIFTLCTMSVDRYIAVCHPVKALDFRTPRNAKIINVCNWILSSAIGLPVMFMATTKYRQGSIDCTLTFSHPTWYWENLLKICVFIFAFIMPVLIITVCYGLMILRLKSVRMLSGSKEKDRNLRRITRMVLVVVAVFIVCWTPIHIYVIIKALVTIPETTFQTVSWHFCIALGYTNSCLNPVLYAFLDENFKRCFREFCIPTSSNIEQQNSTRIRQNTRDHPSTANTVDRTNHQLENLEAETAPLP

Row | SMILES | NOP pEC50 (CL95%) (human NOP receptor) | NOP/mu CR (concentration ratio) (human NOP receptor) | Emax (human NOP receptor) [%] | mu pEC50 (CL95%) (human mu receptor) | pEC50_mu (human mu receptor) | activation at 10 µM (human mu receptor) [%] | Emax (human mu receptor) [%]
1 | C[C@H](NC(=O)CNC(=O)[C@H](CCc1ccccc1)NC(=O)[C@H](Cc1ccccc1)NC(=O)CNC(=O)CNC(=O)[C@@H](N)Cc1ccc(O)cc1)C(=O)N[C@@H](CCCNC(=N)N)C(=O)N[C@@H](CCCCN)C(=O)N[C@@H](CO)C(=O)N[C@@H](C)C(=O)N[C@@H](CCCNC(=N)N)C(=O)N[C@@H](CCCCN)C(N)=O [Compound 18, [Tyr^1,hPhe^5]N/OFQ(1-13)-NH2] (H-YGGF[hPhe]GARKSARK-NH2) | 8.70 (8.24–9.16) | 0.003 | 301 ± 26 | crc incomplete; 10 μM: 228 ± 29 | crc incomplete | 228 ± 29 | 
2 | C[C@H](NC(=O)CNC(=O)[C@@H](NC(=O)[C@H](Cc1ccccc1)NC(=O)CNC(=O)CNC(=O)[C@@H](N)Cc1ccc(O)cc1)c1ccccc1)C(=O)N[C@@H](CCCNC(=N)N)C(=O)N[C@@H](CCCCN)C(=O)N[C@@H](CO)C(=O)N[C@@H](C)C(=O)N[C@@H](CCCNC(=N)N)C(=O)N[C@@H](CCCCN)C(N)=O [Compound 19, [Tyr^1,Phg^5]N/OFQ(1-13)-NH2] (H-YGGF[Phg]GARKSARK-NH2) | 7.57 (7.12–8.02) | 0.17 | 293 ± 31 | 6.81 (6.33–7.29) |  |  | 287 ± 48
3 | COc1ccc(C[C@H](NC(=O)[C@H](Cc2ccccc2)NC(=O)CNC(=O)CNC(=O)[C@@H](N)Cc2ccc(O)cc2)C(=O)NCC(=O)N[C@@H](C)C(=O)N[C@@H](CCCNC(=N)N)C(=O)N[C@@H](CCCCN)C(=O)N[C@@H](CO)C(=O)N[C@@H](C)C(=O)N[C@@H](CCCNC(=N)N)C(=O)N[C@@H](CCCCN)C(N)=O)cc1 [Compound 20, [Tyr^1,p(OCH3)Phe^5]N/OFQ(1-13)-NH2] (H-YGGFY(Me)GARKSARK-NH2) |  |  | 246 ± 18 | crc incomplete; 10 μM: 221 ± 49 | crc incomplete | 221 ± 49 | 
4 | C[C@H](NC(=O)CNC(=O)[C@H](Cc1ccc(F)cc1)NC(=O)[C@H](Cc1ccccc1)NC(=O)CNC(=O)CNC(=O)[C@@H](N)Cc1ccc(O)cc1)C(=O)N[C@@H](CCCNC(=N)N)C(=O)N[C@@H](CCCCN)C(=O)N[C@@H](CO)C(=O)N[C@@H](C)C(=O)N[C@@H](CCCNC(=N)N)C(=O)N[C@@H](CCCCN)C(N)=O [Compound 21, [Tyr^1,(pF)Phe^5]N/OFQ(1-13)-NH2] (H-YGGF[Phe(4-F)]GARKSARK-NH2) |  |  | 311 ± 22 | crc incomplete; 10 μM: 256 ± 55 | crc incomplete | 256 ± 55 | 
5 | C[C@H](NC(=O)CNC(=O)[C@H](Cc1ccc([N+](=O)[O-])cc1)NC(=O)[C@H](Cc1ccccc1)NC(=O)CNC(=O)CNC(=O)[C@@H](N)Cc1ccc(O)cc1)C(=O)N[C@@H](CCCNC(=N)N)C(=O)N[C@@H](CCCCN)C(=O)N[C@@H](CO)C(=O)N[C@@H](C)C(=O)N[C@@H](CCCNC(=N)N)C(=O)N[C@@H](CCCCN)C(N)=O [Compound 22, [Tyr^1,(pNO2)Phe^5]N/OFQ(1-13)-NH2] (H-YGGF[Phe(4-NO2)]GARKSARK-NH2) |  |  | 305 ± 22 | crc incomplete; 10 μM: 192 ± 64 | crc incomplete | 192 ± 64 | 
6 | C[C@H](NC(=O)CNC(=O)[C@@H](NC(=O)[C@H](Cc1ccccc1)NC(=O)CNC(=O)CNC(=O)[C@@H](N)Cc1ccc(O)cc1)C(c1ccccc1)c1ccccc1)C(=O)N[C@@H](CCCNC(=N)N)C(=O)N[C@@H](CCCCN)C(=O)N[C@@H](CO)C(=O)N[C@@H](C)C(=O)N[C@@H](CCCNC(=N)N)C(=O)N[C@@H](CCCCN)C(N)=O [Compound 23, [Tyr^1,Dip^5]N/OFQ(1-13)-NH2] (H-YGGF[Dip]GARKSARK-NH2) | 6.61 (6.13–7.09) | 1.48 | 240 ± 26 | 6.78 (6.28–7.27) |  |  | 331 ± 32
